Experimental data reported in US20090170838A1, “Bicycloheteroaryl compounds as P2X7 modulators and uses thereof” (Renovis, Inc., priority 2005, published 2009).

biological target: T1, P2X7 receptor (Homo sapiens, UniProt Q99572); assay: IL-1β release assay (BzATP-stimulated, LPS/IFN-γ differentiated THP-1 cells, ELISA); assay type: cell-based; settings: at 0.1 μM (asterisk symbols)
T1 construct: host or cells: THP-1 cells differentiated with LPS and IFN-γ
T1 sequence (Q99572 1-595): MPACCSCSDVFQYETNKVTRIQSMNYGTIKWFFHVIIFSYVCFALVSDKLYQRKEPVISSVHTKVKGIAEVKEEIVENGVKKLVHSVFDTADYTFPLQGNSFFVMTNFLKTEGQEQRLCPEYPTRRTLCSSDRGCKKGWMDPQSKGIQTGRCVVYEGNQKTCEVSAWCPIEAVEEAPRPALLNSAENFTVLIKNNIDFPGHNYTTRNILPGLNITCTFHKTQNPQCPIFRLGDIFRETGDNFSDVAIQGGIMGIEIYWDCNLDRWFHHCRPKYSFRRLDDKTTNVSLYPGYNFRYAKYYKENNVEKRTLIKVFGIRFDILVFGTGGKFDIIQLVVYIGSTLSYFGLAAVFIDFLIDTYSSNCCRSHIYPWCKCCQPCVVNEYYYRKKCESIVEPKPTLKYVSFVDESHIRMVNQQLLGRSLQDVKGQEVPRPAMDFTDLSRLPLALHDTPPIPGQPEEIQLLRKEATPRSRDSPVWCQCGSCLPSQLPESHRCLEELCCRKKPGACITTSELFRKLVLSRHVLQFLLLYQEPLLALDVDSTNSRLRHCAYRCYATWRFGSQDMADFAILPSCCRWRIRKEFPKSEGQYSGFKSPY
Description: THP-1 cells (ATCC Cat # 285-IF-100) are plated in 96 well plates at a concentration of 200,000 cells per well and allowed to differentiate in RPMI-1640 media (ATCC Cat # 30-2001) containing 10% FBS, 100 IU/mL penicillin, 100 ug/mL streptomycin, 100 ng/mL LPS and 100 ng/mL IFN-γ for 16 hours. Following differentiation, the cells are treated for an additional 2 hours in RPMI-1640 media containing 100 IU/mL penicillin, 100 ug/mL streptomycin and fresh LPS at 100 ng/mL. The cells are then pretreated for 30 minutes with the compound of interest at the appropriate concentration in RPMI media containing 100 IU/mL penicillin, 100 ug/mL streptomycin. Following the pretreatment 2′,3′-O-(4-benzoylbenzoyl)-adenosine 5′-triphosphate (Sigma Aldrich Cat# B6396) is added to a final concentration of 250 uM and the cells incubated for an additional 45 minutes. 30 uL of cell supernatant is then collected and […] levels determined via ELISA (R&D systems Cat. # HSLB50) according to manufacturer's recommendations using the Tecan Safire plate reader. Background adjusted IL-1β levels of drug treated and non-treated cells are used to calculate the percent inhibition.

Row | inhibition at 0.1 µM | SMILES
1 | ≥ 75% | CC(C)C(CO)n1ccc2c(NC(=O)CC34CC5CC(CC(C5)C3)C4)cccc2c1=O (stereo not drawn) [Compound 887]
2 | ≥ 75% | NC(=O)CCn1ccc2c(NC(=O)CC34CC5CC(CC(C5)C3)C4)cccc2c1=O [Compound 829]
3 | ≥ 75% | CC(c1ccncc1)n1ccc2c(NC(=O)CC34CC5CC(CC(C5)C3)C4)cccc2c1=O (stereo not drawn) [Compound 859]
4 | ≥ 75% | O=C(CC12CC3CC(CC(C3)C1)C2)Nc1cccc2c1CCN(C(CO)CO)C2=O [Compound 827]
5 | ≥ 75% | O=C(CC12CC3CC(CC(C3)C1)C2)Nc1cccc2c(=O)n(C(CO)CO)ccc12 [Compound 826]
6 | ≥ 75% | CC12CC3CC(C)(C1)CC(CC(=O)Nc1cccc4c(=O)n(Cc5c(F)cccc5F)ccc14)(C3)C2 [Compound 835]
7 | ≥ 75% | NC(=O)CN1CCc2c(NC(=O)CC34CC5CC(CC(C5)C3)C4)cccc2C1=O [Compound 828]
8 | ≥ 75% | CC12CC3CC(C)(C1)CC(CC(=O)Nc1cccc4c1CCN(CCCN1CCOCC1)C4=O)(C3)C2 [Compound 822]
9 | ≥ 75% | O=C(CC12CC3CC(CC(C3)C1)C2)Nc1cccc2c(=O)n(C(CO)Cc3c[nH]cn3)ccc12 (stereo not drawn) [Compound 883]
10 | ≥ 75% | CCN1CCCC1CN1CCc2c(NC(=O)CC34CC5CC(CC(C5)C3)C4)cccc2C1=O (stereo not drawn) [Compound 834]
11 | ≥ 75% | CN1CCN(CCN2CCc3c(NC(=O)CC45CC6CC(CC(C6)C4)C5)cccc3C2=O)CC1 [Compound 842]
12 | ≥ 75% | CC(C)(C)OC(=O)N1CCCC1CN1CCc2c(NC(=O)CC34CC5CC(CC(C5)C3)C4)cccc2C1=O (stereo not drawn) [Compound 857]
13 | ≥ 75% | CC(C)Cn1ccc2c(NC(=O)CC34CC5CC(CC(C5)C3)C4)cccc2c1=O [Compound 871]
14 | 50 to 75% | CC1CN(CCn2ccc3c(NC(=O)CC45CC6CC(CC(C6)C4)C5)cccc3c2=O)CC(C)O1 (stereo not drawn) [Compound 869]
15 | ≥ 75% | O=C(CC12CC3CC(CC(C3)C1)C2)Nc1cccc2c1CCN(CCCn1ccnc1)C2=O [Compound 836]
16 | ≥ 75% | CC12CC3CC(C)(C1)CC(CC(=O)Nc1cccc4c(=O)n(CC5CCOCC5)ccc14)(C3)C2 [Compound 820]

More lines, now with the values behind:

Row | SMILES | inhibition at 0.1 µM
17 | CC12CC3CC(C)(C1)CC(CC(=O)Nc1cccc4c(=O)n(Cc5ccc(F)cc5)ccc14)(C3)C2 [Compound 754] | ≥ 75%
18 | O=C(CC12CC3CC(CC(C3)C1)C2)Nc1cccc2c1CCN(CCN1CCOCC1)C2=O [Compound 817] | ≥ 75%
19 | O=C(CC12CC3CC(CC(C3)C1)C2)Nc1cccc2c(=O)n(CCCN3CCCC3)ccc12 [Compound 789] | ≥ 75%
20 | O=C(CC12CC3CC(CC(C3)C1)C2)Nc1cccc2c(=O)n(CC3CCCN3)ccc12 (stereo not drawn) [Compound 809] | ≥ 75%
21 | CC12CC3CC(C)(C1)CC(CC(=O)Nc1cccc4c(=O)n(CC5COc6ccccc6O5)ccc14)(C3)C2 (stereo not drawn) [Compound 766] | 50 to 75%
22 | Cc1cc(Cn2ccc3c(NC(=O)CC45CC6CC(C)(CC(C)(C6)C4)C5)cccc3c2=O)no1 [Compound 761] | 50 to 75%
23 | Cn1ccc2c(NC(=O)CC34CC5CC(CC(C5)C3)C4)cccc2c1=O [Compound 805, adamantyl-N-(2-methyl-1-oxo-1,2-dihydroisoquinolin-5-yl)acetamide] | ≥ 75%
24 | CC12CC3CC(C)(C1)CC(CC(=O)Nc1cccc4c(=O)n(Cc5ccc6c(c5)OCCO6)ccc14)(C3)C2 [Compound 803] | ≥ 75%
25 | Cc1cc(CN2CCc3c(NC(=O)CC45CC6CC(CC(C6)C4)C5)cccc3C2=O)no1 [Compound 801] | ≥ 75%
26 | O=C(CC12CC3CC(CC(C3)C1)C2)Nc1cccc2c1CCN(Cc1ccccn1)C2=O [Compound 795] | ≥ 75%
27 | CC12CC3CC(C)(C1)CC(CC(=O)Nc1cccc4c(=O)n(Cc5cccnc5)ccc14)(C3)C2 [Compound 756] | 50 to 75%
28 | O=C(CC12CC3CC(CC(C3)C1)C2)Nc1cccc2c(=O)n(CCN3CCCC3)ccc12 [Compound 783] | ≥ 75%
29 | O=C(CC12CC3CC(CC(C3)C1)C2)Nc1cccc2c1CCN(Cc1c(F)cccc1F)C2=O [Compound 798] | ≥ 75%
30 | O=C(CC12CC3CC(CC(C3)C1)C2)Nc1cccc2c(=O)n(Cc3ccc4c(c3)OCO4)ccc12 [Compound 779] | ≥ 75%
31 | O=C(CC12CC3CC(CC(C3)C1)C2)Nc1cccc2c(=O)n(Cc3cccc4c3OCCO4)ccc12 [Compound 769] | ≥ 75%
32 | O=C(CC12CC3CC(CC(C3)C1)C2)Nc1cccc2c(=O)n(CCN3CCSCC3)ccc12 [Compound 786] | ≥ 75%
33 | O=C(CC12CC3CC(CC(C3)C1)C2)Nc1cccc2c(=O)n(Cc3cn4ccccc4n3)ccc12 [Compound 770] | ≥ 75%

same assay, conditions: at 0.3 μM (plus symbols)

Row | inhibition at 0.3 µM | SMILES
34 | ≥ 75% | CN1CCC(CN2CCc3c(NC(=O)CC45CC6CC(C)(CC(C)(C6)C4)C5)cccc3C2=O)CC1 [Compound 894]
35 | ≥ 75% | CC(CO)n1ccc2c(NC(=O)CC34CC5CC(CC(C5)C3)C4)cccc2c1=O (stereo not drawn) [Compound 888]
36 | ≥ 75% | CC12CC3CC(C)(C1)CC(CC(=O)Nc1cccc4c(=O)n(C(CO)CO)ccc14)(C3)C2 [Compound 895]

Continued, molecule first:

Row | SMILES | inhibition at 0.3 µM
37 | O=C(CC12CC3CC(CC(C3)C1)C2)Nc1cccc2c(=O)n(Cc3ccccn3)ccc12 [Compound 714] | ≥ 75%
38 | CN(C)CCn1ccc2c(NC(=O)CC34CC5CC(CC(C5)C3)C4)cccc2c1=O [Compound 736] | ≥ 75%
39 | O=C(CC12CC3CC(CC(C3)C1)C2)Nc1cccc2c(=O)n(Cc3ccco3)ccc12 [Compound 712] | ≥ 75%
40 | C[C@H](c1ccccc1)n1ccc2c(NC(=O)CC34CC5CC(CC(C5)C3)C4)cccc2c1=O [Compound 721] | ≥ 75%
41 | Cc1ccccc1Cn1ccc2c(NC(=O)CC34CC5CC(CC(C5)C3)C4)cccc2c1=O [Compound 723] | ≥ 75%
42 | O=C(CC12CC3CC(CC(C3)C1)C2)Nc1cccc2c1CCN(Cc1ccc(F)cc1F)C2=O [Compound 725, 2-Adamantan-1-yl-N-[2-(2,4-difluoro-benzyl)-1-oxo-1,2,3,4-tetrahydro-isoquinolin-5-yl]-acetamide] | ≥ 75%
43 | Cc1nn(C)c(C)c1CN1CCc2c(NC(=O)CC34CC5CC(CC(C5)C3)C4)cccc2C1=O [Compound 729] | ≥ 75%
44 | Cc1cc(Cn2ccc3c(NC(=O)CC45CC6CC(C)(CC(C)(C6)C4)C5)cccc3c2=O)nn1C [Compound 745] | ≥ 75%
45 | Cc1cnc(CN2CCc3c(NC(=O)CC45CC6CC(CC(C6)C4)C5)cccc3C2=O)cn1 [Compound 732] | ≥ 75%
46 | CC12CC3CC(C)(C1)CC(CC(=O)Nc1cccc4c(=O)n(Cc5ccccc5F)ccc14)(C3)C2 [Compound 743] | ≥ 75%
47 | Cc1cc(Cn2ccc3c(NC(=O)CC45CC6CC(CC(C6)C4)C5)cccc3c2=O)no1 [Compound 737] | ≥ 75%
48 | O=C(CC12CC3CC(CC(C3)C1)C2)Nc1cccc2c1CCN(Cc1ccc(F)cc1)C2=O [Compound 704] | ≥ 75%
49 | O=C(CC12CC3CC(CC(C3)C1)C2)Nc1cccc2c(=O)n(Cc3ccccc3Cl)ccc12 [Compound 708] | ≥ 75%
50 | Cc1cnc(Cn2ccc3c(NC(=O)CC45CC6CC(CC(C6)C4)C5)cccc3c2=O)cn1 [Compound 710] | ≥ 75%
51 | CC12CC3CC(C)(C1)CC(CC(=O)Nc1cccc4c(=O)n(CCc5c[nH]cn5)ccc14)(C3)C2 [Compound 741] | ≥ 75%
52 | O=C(CC12CC3CC(CC(C3)C1)C2)Nc1cccc2c(=O)n(Cc3ccc(F)c(F)c3)ccc12 [Compound 735] | ≥ 75%
53 | O=C(CC12CC3CC(CC(C3)C1)C2)Nc1cccc2c(=O)n(Cc3ccccc3)ccc12 [Compound 701, 2-adamantan-1-yl-N-(2-benzyl-1-oxo-1,2-dihydro-isoquinolin-5-yl)-acetamide] | ≥ 75%
54 | Cc1nn(-c2ccccc2)nc1Cn1ccc2c(NC(=O)CC34CC5CC(CC(C5)C3)C4)cccc2c1=O [Compound 738] | ≥ 75%
55 | Cc1cc(Cn2ccc3c(NC(=O)CC45CC6CC(CC(C6)C4)C5)cccc3c2=O)nn1C [Compound 719] | 25 to 50%
56 | O=C(CC12CC3CC(CC(C3)C1)C2)Nc1cccc2c(=O)n(CC3CCNCC3)ccc12 [Compound 749] | ≥ 75%
57 | O=C(CC12CC3CC(CC(C3)C1)C2)Nc1cccc2c(=O)n(Cc3ccc(C(F)(F)F)cc3)ccc12 [Compound 713] | ≥ 75%
